Results as given in patent publication US20250084062A1, “SUBSTITUTED QUINOLINE DERIVATIVE” (ASTELLAS PHARMA INC., priority 2021, published 2025).

Legend:
[1] = test system: acetylcholine receptor clustering; conditions: NPL 16; cited from earlier work
[2] = test system: MuSK-type myasthenia gravis animal model; experiment: Suppressing action on muscle weakness (grip strength) in MuSK type myasthenia gravis animal model (Test Example 2); format: in vivo, mouse; conditions: grip strength test on 5th day, female DBA/2 mice, FIG. 1
Description: Test Example 2: Suppressing Action on Muscle Weakness in MuSK Type Myasthenia Gravis Animal Model
(§1) In a MuSK-type myasthenia gravis animal model, in which the production of autoantibodies against endogenous MuSK was induced by immunizing with human recombinant MuSK protein, decreased grip strength was evaluated as a pathological index.
(§2) A grip strength measuring device (GPM-100B; Melquest) was used to measure the grip strength of the extremities.
(§3) Repeated daily oral administration of the test compound in the MuSK-type myasthenia gravis animal model was performed as follows.
Seven point five micrograms of human MuSK recombinant protein (9810-MK; R&D systems) prepared with Freund's Complete Adjuvant (263810; Becton, Dickinson and Company) was intradermally administered to the tail of 8-week-old female DBA/2 mice (Charles River Laboratories Japan). Two weeks later, 7.5 micrograms of human MuSK recombinant protein prepared with Freund's Incomplete Adjuvant (263910; Becton, Dickinson and Company) was intradermally administered to the tail to induce myasthenia gravis mice. A week later, antibody titers against human MuSK in serum and grip strengths by the grip strength test were measured, and the mice were divided into groups of 6 mice each based on the antibody titer value and subjected to administration of the test compound. […]

[3] = test system: acetylcholine receptor clustering; conditions: reported in NPL 15; cited from earlier work
[4] = test system: acetylcholine receptor clustering in C2Cl2 cells; experiment: Induction of acetylcholine receptor clustering in mouse myoblasts C2Cl2 cells (Test Example 1); format: cell-based; conditions: Mus musculus; for Emax: Myoblast, maximum response, area of acetylcholine receptor cluster region vs 10 ng/ml Agrin (100%), 0.1 ng/ml Agrin = 0%, read-out: Max; for EC50: Myotube, C2Cl2 myotubes, with 0.1 ng/ml Agrin, concentration giving 50% of cluster area of 10 ng/ml Agrin (100%), read-out: EC50
Description: Test Example 1: Evaluation of the Induction of Acetylcholine Receptor Clustering in Mouse Myoblasts C2Cl2 Cells
Induction of acetylcholine receptor clustering by the test compound was evaluated by using fluorescently-labeled Bungarotoxin to image and quantify the acetylcholine receptor cluster region induced by the differentiation of myoblasts into myotubes, and measure the change in area. The following test method was optimized with reference to various reports including FEBS let., 586, 3111-3116 (2012). When a concentration response curve is obtained by plotting the logarithmic concentration of the test compound on the horizontal axis and the ratio of the area of acetylcholine receptor cluster region on the vertical axis, the inducing action of the test compound can be determined.
A concentration response curve as an index indicating acetylcholine receptor clustering inducing action of the test compound in mouse C2Cl2 cells was prepared. C2Cl2 cells (ATCC Number: CRL-1772) were seeded at about 5000 cells/well on a 384-well plate (354667; Corning) coated with type I collagen and allowed to incubate at 37 degrees Celsius overnight in DMEM+20% FBS+1% penicillin/streptomycin medium. The following day, the medium was removed and replaced with a differentiation medium containing DMEM+2% FBS+1% penicillin/streptomycin, and allowed to incubate at 37 degrees Celsius for 4 days. The test compound was dissolved in DMSO and added to a differentiation medium containing 0.1 ng/ml Agrin (550-AG-100; R&D systems) such that the final concentration was […] (3-fold serial dilution) or 0.00017 to 3.3 μM (3-fold serial dilution). The final concentration of DMSO was 0.3%. After the 4 days of incubation, the differentiation medium was replaced with a differentiation medium containing the test compound and 0.1 ng/ml Agrin or a differentiation medium containing 0.1 ng/ml Agrin or 10 ng/ml Agrin alone, and allowed to incubate at 37 degrees Celsius overnight. The next day, 10 μl of DMEM containing Bungarotoxin-Alexa488 (B13422; Life technologies) was added to the differentiation medium containing test compound and Agrin and Agrin alone so that the final concentration of Bungarotoxin-Alexa488 was 1 μg/ml, and was allowed to incubate at 37 degrees Celsius for 1 hour to label the acetylcholine receptor. After removing all the medium, 4% PFA was added to each well and allowed to incubate at room temperature for 10 minutes, then washed with PBS, and allowed to incubate at room temperature for 30 minutes in PBS containing 5% goat serum and 0.3% Triton X-100. After removing the PBS solution, PBS-Tween20 (28352; Thermo fisher scientific) containing Anti-Myosin Heavy Chain eFluor (registered trademark) 660 (50-6503-82; eBioscience) and DAPI (340-07971; Dojindo) was added to each well and allowed to incubate at room temperature for 1 hour to label the myotubes and nuclei. After washing three times with PBS-Tween20, the fluorescence was imaged using IN Cell Analyzer 6000 (GE Healthcare). […] The response of control group (1) was regarded as 0% and the response of the control group (2) was regarded as 100%. For quantification, the signal of only the acetylcholine receptor present in the myotube was used to eliminate non-specific fluorescence.
EC50 and Max value were used as indicators of activity in order to quantitatively evaluate the inducing action of the test compound on acetylcholine receptor clustering. EC50 value is a test compound concentration which indicates 50% in terms of the area of acetylcholine receptor cluster region compared to that of 10 ng/ml Agrin (regarded as 100%) in the concentration response curve. EC50 was calculated by nonlinear regression analysis from the concentration response curve using the area of the cluster region of the test compound as an index. Max value is the maximum response value. […]

[5] = test system: MuSK-type myasthenia gravis animal model; experiment: Suppressing action on muscle weakness (grip strength) in MuSK type myasthenia gravis animal model (Test Example 3); format: in vivo, mouse; conditions: grip strength test on 4th day, female DBA/2 mice, FIG. 2
Description: Test Example 3: Suppressing Action on Muscle Weakness in MuSK Type Myasthenia Gravis Animal Model
as §1, §2, §3
Seven point five micrograms of human MuSK recombinant protein (9810-MK; R&D systems) prepared with Freund's Complete Adjuvant (263810; Becton, Dickinson and Company) was intradermally administered to the tail of 8-week-old female DBA/2 mice (Charles River Laboratories Japan). Two weeks later, 7.5 micrograms of human MuSK recombinant protein prepared with Freund's Incomplete Adjuvant (263910; Becton, Dickinson and Company) was intradermally administered to the tail to induce myasthenia gravis mice. A week later, antibody titers against human MuSK in serum and grip strengths by the grip strength test were measured, and the mice were divided into groups of 6 mice each and subjected to administration of the test compound. The test compound was orally administered to the mice in the treatment group (3 and 10 mg/kg, suspended in 0.5% methylcellulose twice daily), and vehicle (0.5% methylcellulose) was used for the mice in the control group in place of the test compound. As a normal group, mice of the same age, same sex, and same strain were used that were not immunized with human recombinant MuSK protein. A grip strength test was performed after the administration in the morning of the 4th day.
The significance test between the normal group and the control group was performed by the Student-t test (*p<0.05). In addition, Dunnett's multiple comparison test was used between the control group and the test compound group (#p<0.05). A p-value less than 5% was regarded as significant in all the tests.

EC50 [4] | Compound | Emax [4] | suppressing action on grip strength decrease ([5]; 10 mg/kg oral twice daily) | also measured
– | C=C1CC[C@H](O)C/C1=C/C=C1\CCC[C@]2(C)[C@@H]([C@H](C)CCCC(C)C)CC[C@@H]12 | – | – | inducing action on acetylcholine receptor clustering in combination with Agrin [1]: promotes an inducing action on acetylcholine receptor clustering
– | Cc1cc(-c2c(F)cc(S(=O)(=O)N3CC[C@H](F)C3)cc2F)nc2cc(C(=O)[O-])ccc12.[Na+] [Example 2, sodium 2-{2,6-difluoro-4-[(3S)-3-fluoropyrrolidine-1-sulfonyl]phenyl}-4-methylquinoline-7-carboxylate] | – | – | suppressing action on grip strength decrease ([2]; 10 mg/kg oral twice daily): suppressing action on grip strength decrease; suppressing action on grip strength decrease ([2]; 30 mg/kg oral twice daily): suppressing action on grip strength decrease
– | CC(C)(C)NCC(O)c1ccc(O)c(CO)c1 (centres unmarked) [salbutamol] | – | – | inducing action on acetylcholine receptor clustering [3]: has an inducing action on acetylcholine receptor clustering
3 nM | Cc1c(F)c(-c2c(F)cc(S(=O)(=O)N3CCC(F)CC3)cc2F)nc2cc(C(=O)O)ccc12 [Example 18, 2-[2,6-difluoro-4-(4-fluoropiperidine-1-sulfonyl)phenyl]-3-fluoro-4-methylquinoline-7-carboxylic acid] | 99.8% | suppressing action on grip strength decrease | suppressing action on grip strength decrease ([5]; 3 mg/kg oral twice daily): suppressing action on grip strength decrease
16 nM | Cc1cc(-c2c(F)cc(S(=O)(=O)N3CCC(F)CC3)cc2F)nc2cc(C(=O)O)ccc12 [Example 19, 2-[2,6-difluoro-4-(4-fluoropiperidine-1-sulfonyl)phenyl]-4-methylquinoline-7-carboxylic acid] | 108% | suppressing action on grip strength decrease | –
